Among the data in patent publication US9676714B2, “Sulfonylindole derivatives and method for preparing the same” (Daewoong Pharmaceutical Co., Ltd., priority 2013, dated 2017) are IC50 values, retold here.

What is called IC50 is the midpoint of a concentration-inhibition curve. Low readings indicate higher potency, high ones lower potency.

Structures can show the parent of a compound that is named as a salt.

In the experiment the target is T1, proton pump (H+/K+-ATPase) (Sus scrofa, UniProt P19156).
T1 construct: Gastric vesicles were prepared from hog stomach via centrifugal separation; from tissue; host or cells: hog stomach (gastric vesicles, method of Rabon et al. 1988)
T1 sequence (P19156 whole entry): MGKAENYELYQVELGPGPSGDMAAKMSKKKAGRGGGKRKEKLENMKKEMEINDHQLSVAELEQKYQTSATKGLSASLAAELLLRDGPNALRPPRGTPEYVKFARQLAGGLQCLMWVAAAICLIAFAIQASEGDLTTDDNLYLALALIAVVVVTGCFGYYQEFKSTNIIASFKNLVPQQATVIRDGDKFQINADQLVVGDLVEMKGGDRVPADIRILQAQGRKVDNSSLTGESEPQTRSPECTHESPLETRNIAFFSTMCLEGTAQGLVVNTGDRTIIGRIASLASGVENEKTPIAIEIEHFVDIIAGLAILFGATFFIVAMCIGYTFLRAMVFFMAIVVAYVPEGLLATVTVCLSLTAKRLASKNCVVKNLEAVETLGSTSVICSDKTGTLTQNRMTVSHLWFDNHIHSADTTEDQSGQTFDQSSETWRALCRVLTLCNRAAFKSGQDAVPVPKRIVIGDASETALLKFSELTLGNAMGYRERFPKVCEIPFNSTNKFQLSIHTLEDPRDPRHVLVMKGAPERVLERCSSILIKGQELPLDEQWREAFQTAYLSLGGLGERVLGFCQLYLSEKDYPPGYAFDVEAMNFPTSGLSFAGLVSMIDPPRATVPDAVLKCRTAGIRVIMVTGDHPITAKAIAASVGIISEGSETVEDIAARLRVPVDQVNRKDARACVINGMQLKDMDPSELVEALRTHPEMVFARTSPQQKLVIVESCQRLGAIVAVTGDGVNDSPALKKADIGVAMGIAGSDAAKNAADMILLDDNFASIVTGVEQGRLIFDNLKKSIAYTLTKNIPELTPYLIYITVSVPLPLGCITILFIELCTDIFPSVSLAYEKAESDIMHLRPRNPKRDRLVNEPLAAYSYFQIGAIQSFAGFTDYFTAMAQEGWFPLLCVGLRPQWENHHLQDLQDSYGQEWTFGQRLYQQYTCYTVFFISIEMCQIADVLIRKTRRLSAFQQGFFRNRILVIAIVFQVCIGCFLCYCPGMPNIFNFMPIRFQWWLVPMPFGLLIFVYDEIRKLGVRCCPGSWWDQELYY
T1 sequence (P18434 whole entry partner): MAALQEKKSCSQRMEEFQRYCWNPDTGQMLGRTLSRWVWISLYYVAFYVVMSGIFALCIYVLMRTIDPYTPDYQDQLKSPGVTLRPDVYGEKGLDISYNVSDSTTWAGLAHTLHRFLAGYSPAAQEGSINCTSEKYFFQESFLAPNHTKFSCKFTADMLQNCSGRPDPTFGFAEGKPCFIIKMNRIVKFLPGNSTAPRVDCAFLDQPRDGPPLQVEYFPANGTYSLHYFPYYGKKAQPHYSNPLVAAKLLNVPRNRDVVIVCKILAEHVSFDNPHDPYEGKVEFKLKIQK
Description: Measurement of inhibitory effects on proton pump (H+/K+-ATPase) activities. Format: biochemical. To be noted: hog gastric vesicles, K+-specific H+/K+-ATPase activity, Tris-HCl buffer pH 7.4, 37° C. for 40 minutes, malachite green Pi readout. A digest of the protocol: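 Hog gastric vesicles in 60 mmol/l Tris-HCl pH 7.4 with 0.5% DMSO were treated with compounds at room temperature; reaction was started with 10 μl of 10 mmol/l ATP stock. Released Pi was read at 570 nm, K+-specific activity taken as the ±K+ difference. IC50 from 4-parameter logistic fit.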
In turn, `CNCc1cn(S(=O)(=O)c2cccc(OC)c2)c2cc(Nc3ccc(C)cc3Cl)ccc12` [Example 163, N-(2-chloro-4-methylphenyl)-1-((3-methoxyphenyl)sulfonyl)-3-((methylamino)methyl)-1H-indol-6-amine hydrochloride] had an IC50 of 140 nM.

`CNCc1cn(S(=O)(=O)c2cccc(OC)c2)c2cc(Nc3ccc(Cl)cc3F)ccc12` [Example 164, N-(4-chloro-2-fluorophenyl)-1-((3-methoxyphenyl)sulfonyl)-3-((methylamino)methyl)-1H-indol-6-amine hydrochloride] had an IC50 of 7060 nM.

`CNCc1cn(S(=O)(=O)c2cccc(OC)c2)c2cc(Nc3ccc(Cl)cc3C(F)(F)F)ccc12` [Example 165, N-(4-chloro-2-(trifluoromethyl)phenyl)-1-((3-methoxyphenyl)sulfonyl)-3-((methylamino)methyl)-1H-indol-6-amine hydrochloride] registered an IC50 of 80 nM.

In turn, `CNCc1cn(S(=O)(=O)c2cccc(OC)c2)c2cc(Nc3ccc(C(F)(F)F)cc3Cl)ccc12` [Example 166, N-(2-chloro-4-(trifluoromethyl)phenyl)-1-((3-methoxyphenyl)sulfonyl)-3-((methylamino)methyl)-1H-indol-6-amine hydrochloride] showed an IC50 of 340 nM.

Regarding `CNCc1cn(S(=O)(=O)c2cccc(OC)c2)c2cc(Nc3ccc(OC)cc3F)ccc12` [Example 167, N-(2-fluoro-4-methoxyphenyl)-1-((3-methoxyphenyl)sulfonyl)-3-((methylamino)methyl)-1H-indol-6-amine hydrochloride], half-maximal inhibition (IC50) was put at 610 nM.

`CNCc1cn(S(=O)(=O)c2cccc(OC)c2)c2cc(Nc3ccc(OC(F)(F)F)cc3C)ccc12` [Example 168, 1-((3-methoxyphenyl)sulfonyl)-N-(2-methyl-4-(trifluoromethoxy)phenyl)-3-((methylamino)methyl)-1H-indol-6-amine hydrochloride] gave an IC50 of 790 nM.

In the case of `CNCc1cn(S(=O)(=O)c2cccc(OC)c2)c2cc(Nc3ccc(OC(F)(F)F)cc3Cl)ccc12` [Example 169, N-(2-chloro-4-(trifluoromethoxy)phenyl)-1-((3-methoxyphenyl)sulfonyl)-3-((methylamino)methyl)-1H-indol-6-amine hydrochloride], 80 nM corresponded to half-maximal inhibition (IC50).

`CNCc1cn(S(=O)(=O)c2cccc(OC)c2)c2cc(Nc3ccc(C)c(F)c3F)ccc12` [Example 170, N-(2,3-difluoro-4-methylphenyl)-1-((3-methoxyphenyl)sulfonyl)-3-((methylamino)methyl)-1H-indol-6-amine hydrochloride] displayed an IC50 of 260 nM.

As for `CNCc1cn(S(=O)(=O)c2cccc(OC)c2)c2cc(Nc3ccc(C)nc3F)ccc12` [Example 171, N-(2-fluoro-6-methylpyridin-3-yl)-1-((3-methoxyphenyl)sulfonyl)-3-((methylamino)methyl)-1H-indol-6-amine hydrochloride], it took 630 nM to reach half-maximal inhibition (IC50).

`CNCc1cn(S(=O)(=O)c2cccc(OC)c2)c2cc(Nc3ccc(C)nc3Cl)ccc12` [Example 172, N-(2-chloro-6-methylpyridin-3-yl)-1-((3-methoxyphenyl)sulfonyl)-3-((methylamino)methyl)-1H-indol-6-amine hydrochloride] showed an IC50 of 1500 nM.

Regarding `CNCc1cn(S(=O)(=O)c2cccc(OC)c2)c2cc(Nc3ccc(OC)nc3Cl)ccc12` [Example 173, N-(2-chloro-6-methoxypyridin-3-yl)-1-((3-methoxyphenyl)sulfonyl)-3-((methylamino)methyl)-1H-indol-6-amine hydrochloride], the IC50 is 1190 nM.

`CNCc1cn(S(=O)(=O)c2cccc(OC(F)F)c2)c2cc(Nc3ccc(C)cc3F)ccc12` [Example 174, 1-((3-(difluoromethoxy)phenyl)sulfonyl)-N-(2-fluoro-4-methylphenyl)-3-((methylamino)methyl)-1H-indol-6-amine hydrochloride] yielded an IC50 of 20 nM.

`CNCc1cn(S(=O)(=O)c2cccc(OC(F)F)c2)c2cc(Nc3ccc(C)cc3Cl)ccc12` [Example 175, N-(2-chloro-4-methylphenyl)-1-((3-(difluoromethoxy)phenyl)sulfonyl)-3-((methylamino)methyl)-1H-indol-6-amine hydrochloride] displayed an IC50 of 150 nM.

In turn, `CNCc1cn(S(=O)(=O)c2cccc(OC(F)F)c2)c2cc(Nc3ccc(Cl)cc3F)ccc12` [Example 176, N-(4-chloro-2-fluorophenyl)-1-((3-(difluoromethoxy)phenyl)sulfonyl)-3-((methylamino)methyl)-1H-indol-6-amine hydrochloride] came in with an IC50 of 370 nM.

`CNCc1cn(S(=O)(=O)c2cccc(OC(F)F)c2)c2cc(Nc3ccc(Cl)cc3C(F)(F)F)ccc12` [Example 177, N-(4-chloro-2-(trifluoromethyl)phenyl)-1-((3-(difluoromethoxy)phenyl)sulfonyl)-3-((methylamino)methyl)-1H-indol-6-amine hydrochloride] gave an IC50 of 1410 nM.

Take `CNCc1cn(S(=O)(=O)c2cccc(OC(F)F)c2)c2cc(Nc3ccc(OC)cc3F)ccc12` [Example 178, 1-((3-(difluoromethoxy)phenyl)sulfonyl)-N-(2-fluoro-4-methoxyphenyl)-3-((methylamino)methyl)-1H-indol-6-amine hydrochloride]: half-maximal inhibition (IC50) was put at 610 nM.

With `CNCc1cn(S(=O)(=O)c2cccc(OC(F)F)c2)c2cc(Nc3ccc(OC(F)(F)F)cc3C)ccc12` [Example 179, 1-((3-(difluoromethoxy)phenyl)sulfonyl)-N-(2-methyl-4-(trifluoromethoxy)phenyl)-3-((methylamino)methyl)-1H-indol-6-amine hydrochloride], the IC50 stood at 330 nM.

Compound `CNCc1cn(S(=O)(=O)c2cccc(OC(F)F)c2)c2cc(Nc3ccc(C)c(F)c3F)ccc12` [Example 180, N-(2,3-difluoro-4-methylphenyl)-1-((3-(difluoromethoxy)phenyl)sulfonyl)-3-((methylamino)methyl)-1H-indol-6-amine hydrochloride] registered a half-maximal inhibitory concentration (IC50) of 270 nM.

Compound `CNCc1cn(S(=O)(=O)c2cccc(OC(F)F)c2)c2cc(Nc3ccc(C)nc3F)ccc12` [Example 181, 1-((3-(difluoromethoxy)phenyl)sulfonyl)-N-(2-fluoro-6-methylpyridin-3-yl)-3-((methylamino)methyl)-1H-indol-6-amine hydrochloride] yielded an IC50 of 1280 nM.

For `CNCc1cn(S(=O)(=O)c2cccc(C(F)(F)F)c2)c2cc(Nc3ccc(C)cc3F)ccc12` [Example 183, N-(2-fluoro-4-methylphenyl)-3-((methylamino)methyl)-1-((3-(trifluoromethyl)phenyl)sulfonyl)-1H-indol-6-amine hydrochloride], the IC50 amounted to 590 nM.

With `CNCc1cn(S(=O)(=O)c2cccc(C(F)(F)F)c2)c2cc(Nc3ccc(C)cc3Cl)ccc12` [Example 184, N-(2-chloro-4-methylphenyl)-3-((methylamino)methyl)-1-((3-(trifluoromethyl)phenyl)sulfonyl)-1H-indol-6-amine hydrochloride], the IC50 is 360 nM.

As for `CNCc1cn(S(=O)(=O)c2cccc(C(F)(F)F)c2)c2cc(Nc3ccc(Cl)cc3F)ccc12` [Example 185, N-(4-chloro-2-fluorophenyl)-3-((methylamino)methyl)-1-((3-(trifluoromethyl)phenyl)sulfonyl)-1H-indol-6-amine hydrochloride], the IC50 stood at 1000 nM.

Consider `CNCc1cn(S(=O)(=O)c2cccc(C(F)(F)F)c2)c2cc(Nc3ccc(Cl)cc3C(F)(F)F)ccc12` [Example 186, N-(4-chloro-2-(trifluoromethyl)phenyl)-3-((methylamino)methyl)-1-((3-(trifluoromethyl)phenyl)sulfonyl)-1H-indol-6-amine hydrochloride], for which the IC50 was found to be 410 nM.

With `CNCc1cn(S(=O)(=O)c2cccc(C(F)(F)F)c2)c2cc(Nc3ccc(C(F)(F)F)cc3Cl)ccc12` [Example 187, N-(2-chloro-4-(trifluoromethyl)phenyl)-3-((methylamino)methyl)-1-((3-(trifluoromethyl)phenyl)sulfonyl)-1H-indol-6-amine hydrochloride], the IC50 came out at 980 nM.

`CNCc1cn(S(=O)(=O)c2cccc(C(F)(F)F)c2)c2cc(Nc3ccc(OC)cc3F)ccc12` [Example 188, N-(2-fluoro-4-methoxyphenyl)-3-((methylamino)methyl)-1-((3-(trifluoromethyl)phenyl)sulfonyl)-1H-indol-6-amine hydrochloride]: the IC50 was 400 nM.

As to `CNCc1cn(S(=O)(=O)c2cccc(C(F)(F)F)c2)c2cc(Nc3ccc(OC(F)(F)F)cc3C)ccc12` [Example 189, N-(2-methyl-4-(trifluoromethoxy)phenyl)-3-((methylamino)methyl)-1-((3-(trifluoromethyl)phenyl)sulfonyl)-1H-indol-6-amine hydrochloride], the IC50 came out at 650 nM.

In turn, `CNCc1cn(S(=O)(=O)c2cccc(C(F)(F)F)c2)c2cc(Nc3ccc(OC(F)(F)F)cc3OC)ccc12` [Example 190, N-(2-methoxy-4-(trifluoromethoxy)phenyl)-3-((methylamino)methyl)-1-((3-(trifluoromethyl)phenyl)sulfonyl)-1H-indol-6-amine hydrochloride] had an IC50 of 440 nM.

Turning to `CNCc1cn(S(=O)(=O)c2cccc(C(F)(F)F)c2)c2cc(Nc3ccc(C)c(F)c3F)ccc12` [Example 191, N-(2,3-difluoro-4-methylphenyl)-3-((methylamino)methyl)-1-((3-(trifluoromethyl)phenyl)sulfonyl)-1H-indol-6-amine hydrochloride], the IC50 was found to be 70 nM.

`CNCc1cn(S(=O)(=O)c2cccc(C(F)(F)F)c2)c2cc(Nc3ccc(C)nc3Cl)ccc12` [Example 192, N-(2-chloro-6-methylpyridin-3-yl)-3-((methylamino)methyl)-1-((3-(trifluoromethyl)phenyl)sulfonyl)-1H-indol-6-amine hydrochloride] returned a half-maximal inhibitory concentration (IC50) of 60 nM.
